Experimental findings from US8445538B2, “Glucagon receptor antagonist compounds” (Merck Sharp & Dohme Corp., priority 2008, dated 2013) are described below.

T1 sequence (P47871 26-477): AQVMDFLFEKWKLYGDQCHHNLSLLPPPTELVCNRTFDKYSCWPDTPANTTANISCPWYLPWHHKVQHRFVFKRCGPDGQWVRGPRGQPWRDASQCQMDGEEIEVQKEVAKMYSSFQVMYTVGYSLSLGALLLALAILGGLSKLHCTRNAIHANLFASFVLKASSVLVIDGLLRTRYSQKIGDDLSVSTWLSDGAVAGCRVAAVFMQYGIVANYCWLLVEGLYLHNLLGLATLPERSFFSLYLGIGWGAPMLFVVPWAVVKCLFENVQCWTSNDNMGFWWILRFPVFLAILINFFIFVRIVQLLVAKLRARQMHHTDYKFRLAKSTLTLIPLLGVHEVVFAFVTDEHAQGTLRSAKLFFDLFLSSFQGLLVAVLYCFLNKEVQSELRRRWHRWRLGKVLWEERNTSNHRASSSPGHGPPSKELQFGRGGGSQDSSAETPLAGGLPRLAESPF

This experiment has as its target T1, human glucagon receptor (Homo sapiens, UniProt P47871).
T1 construct: expressed in transfected cells; cell membranes used
As to the kind of experiment: Glucagon Receptor Binding Assay (125I-glucagon, SPA, CHO cell membranes). The following applies: 125I-Glucagon binding to membranes of CHO cells expressing cloned human glucagon receptor; more active isomer of indicated compounds. The protocol: Glucagon Receptor Binding Assay
A stable CHO (Chinese hamster ovary) cell line expressing cloned human glucagon receptor was maintained as described (Chicchi, et. al. J Biol Chem 272, 7765-9 (1997); Cascieri, et. al. J Biol Chem 274, 8694-7 (1999)). To determine antagonistic binding affinity of compounds, 0.001-0.003 mg of cell membranes from these cells were pre-incubated with 0.100 mg WGA-coated PVT SPA beads (Amersham) for 20 minutes at room temperature in 25 μL of a buffer containing 50 mM Tris-HCl (pH 7.5), 5 mM MgCl2, 2 mM EDTA, 0.1% BSA and 3% glycerol in Costar 384 well plates with clear bottoms (#3706). Next, 25 μL of ^125I-Glucagon (New England Nuclear, Mass.) (1×10^−14 mol per well) and either 1 μL solutions of test compounds or 0.001 mM unlabeled glucagon or DMSO were added and mixed. After 4-12 hours incubation at room temperature, the radioactivity bound to the cell membranes was determined in a radioactive emission detection counter (Wallac-Microbeta). Data were analyzed using the Data Analyzer software program of Merck & Co., Inc. The IC50 values were calculated using non-linear regression analysis assuming single-site competition.
Take `CCC[C@H](c1ccc(C(=O)NCCC(=O)O)cc1)C(c1ccc(Cl)cc1)c1ccc(F)c2ccccc12` (stereo partly drawn) [Example 1, N-(4-{(1S)-1-[(4-chlorophenyl)(4-fluoro-1-naphthyl)methyl]butyl}benzoyl)-β-alanine]: the IC50 (commonly the concentration that gives 50% inhibition) came out at 3.3 nM.

For `CCC[C@H](c1ccc(C(=O)NCCC(=O)O)cc1)C(c1ccc(Cl)cc1)c1ccc2cc(OC)ccc2c1` (stereo partly drawn) [Example 2, N-(4-{(1S)-1-[(4-chlorophenyl)(6-methoxy-2-naphthyl)methyl]butyl}benzoyl)-β-alanine], the IC50 was 0.85 nM.

`CCC[C@H](c1ccc(C(=O)NCCC(=O)O)cc1)C(c1ccc(Cl)cc1)c1ccc2cc(OC(F)F)ccc2c1` (stereo partly drawn) [Example 3, N-[4-((1S)-1-{(4-chlorophenyl)[6-(difluoromethoxy)-2-naphthyl]methyl}butyl)benzoyl]-β-alanine] registered an IC50 of 0.37 nM. Compared with the last compound, the IC50 is about 2.3-fold lower.

For the compound `CCC[C@H](c1ccc(C(=O)NCCC(=O)O)cc1)C(c1ccc(Cl)cc1)c1ccc2cc(C#N)ccc2c1` (stereo partly drawn) [Example 4], the IC50 was 1.5 nM.

The compound `CCC[C@H](c1ccc(C(=O)NCCC(=O)O)cc1)C(c1ccc(C#N)cc1)c1ccc(F)c2ccccc12` (stereo partly drawn) [Example 5, N-(4-{(1S)-1-[(4-cyanophenyl)(4-fluoro-1-naphthyl)methyl]butyl}benzoyl)-β-alanine] had an IC50 of 2.1 nM.

As for `CCC[C@H](c1ccc(C(=O)NC[C@H](O)C(=O)O)cc1)C(c1ccc(Cl)cc1)c1ccc2cc(OC)ccc2c1` (stereo partly drawn) [Example 7, (2S)-3-[(4-{(1S)-1-[(4-chlorophenyl)(6-methoxy-2-naphthyl)methyl]butyl}benzoyl)amino]-2-hydroxypropanoic acid], the IC50 was determined as 1.7 nM.

`CCCC(c1ccc(C(=O)NCCC(=O)O)cc1)C(c1ccc(C)cc1)c1ccc(F)c2ccccc12` (stereo not drawn) [Example 12] came in with an IC50 of 4.3 nM.

In turn, `CCCC(c1ccc(C(=O)NCCC(=O)O)cc1)C(c1ccc(Cl)cc1)c1ccc(OC)c2ccc(OC)cc12` (stereo not drawn) [Example 21] displayed an IC50 of 14.2 nM.

`CCCC(c1ccc(C(=O)NCCC(=O)O)cc1)C(c1ccc(Cl)cc1)c1c(Cl)cc(OC)c2c(F)cccc12` (stereo not drawn) [Example 30] displayed an IC50 of 53 nM.

For `CCCC(c1ccc(C(=O)NCCC(=O)O)cc1)C(c1ccc(Cl)cc1)c1ccc2cc(SC)ccc2c1` (stereo not drawn) [Example 36], the IC50 came out at 0.83 nM.

Consider `CCCC(c1ccc(C(=O)NCCC(=O)O)cc1)C(c1ccc(Cl)cc1)c1ccc2cc(S(C)(=O)=O)ccc2c1` (stereo not drawn) [Example 37], for which the IC50 came out at 2.9 nM.

Regarding `CCC[C@H](c1ccc(C(=O)NCC(F)(F)C(=O)O)cc1)C(c1ccc(Cl)cc1)c1ccc(F)c2ccccc12` (stereo partly drawn) [Example 52], the IC50 was 98 nM. This IC50 lies about 34-fold higher than the previous one.

The compound `CCC[C@H](c1ccc(C(=O)NCCS(=O)(=O)O)cc1)C(c1ccc(Cl)cc1)c1ccc(F)c2ccccc12` (stereo partly drawn) [Example 53] registered a 50% inhibitory concentration (IC50) of 3.4 nM.

In the case of `CCC[C@H](c1ccc(C(=O)NCc2nnn[nH]2)cc1)C(c1ccc(Cl)cc1)c1ccc(F)c2ccccc12` (stereo partly drawn) [Example 55], the IC50 amounted to 4 nM.

`CCC[C@H](c1ccc(C(=O)Nc2nnn[nH]2)cc1)C(c1ccc(Cl)cc1)c1ccc(F)c2ccccc12` (stereo partly drawn) [Example 56]: the IC50 came to 7.6 nM.
